Reference: the supplement of paper PMC8882468

What follows are compounds tested on HCI-001 (organoid from a triple-negative breast cancer xenograft) (assay: CTG-3D luminescence at 96 h relative to day-0 seeding control (ratio to day 0); higher = more growth / less cytotoxicity; PDxO 3D drug screen, 96 h, CTG-3D normalised to day-0 seeding control.). Conditions: 0.1 µM; days in culture: 240.

Point of comparison: `Cc1cc(Nc2ncnc3ccc(NC4=NC(C)(C)CO4)cc23)ccc1Oc1ccn2ncnc2c1` [tucatinib], “CTG-3D luminescence at 96 h” value 1.24. Against it:
- CC(C)n1nc(-c2ccc3oc(N)nc3c2)c2c(N)ncnc21 [sapanisertib] — lower, 0.395
- Cc1nc(-c2cn3c(n2)-c2ccc(-c4cnn(C(C)(C)C(N)=O)c4)cc2OCC3)n(C(C)C)n1 [taselisib] — lower, 0.482
- CS(=O)(=O)c1ccc(C(=O)Nc2ccc(Cl)c(-c3ccccn3)c2)c(Cl)c1 [vismodegib] — lower, 1.03
- CNC(=O)c1cccc(-c2ccc3c(N4CCOC[C@@H]4C)nc(N4CCOC[C@@H]4C)nc3n2)c1 [vistusertib] — lower, 0.68

Same assay, conditions: 0.1 µM; days in culture: 260

Point of comparison: `CNC(=O)c1cccc(-c2ccc3c(N4CCOC[C@@H]4C)nc(N4CCOC[C@@H]4C)nc3n2)c1` [vistusertib], “CTG-3D luminescence at 96 h” value 1.31. Against it:
- CC(C)n1nc(-c2ccc3oc(N)nc3c2)c2c(N)ncnc21 [sapanisertib] — lower, 0.622
- Cc1nc(-c2cn3c(n2)-c2ccc(-c4cnn(C(C)(C)C(N)=O)c4)cc2OCC3)n(C(C)C)n1 [taselisib] — lower, 0.934
- Cc1cc(Nc2ncnc3ccc(NC4=NC(C)(C)CO4)cc23)ccc1Oc1ccn2ncnc2c1 [tucatinib] — higher, 1.38
- CS(=O)(=O)c1ccc(C(=O)Nc2ccc(Cl)c(-c3ccccn3)c2)c(Cl)c1 [vismodegib] — higher, 1.74

Same assay, conditions: 0.1 µM; days in culture: 269

Point of comparison: `Cc1nc(-c2cn3c(n2)-c2ccc(-c4cnn(C(C)(C)C(N)=O)c4)cc2OCC3)n(C(C)C)n1` [taselisib], “CTG-3D luminescence at 96 h” value 1.21. Against it:
- CC(C)n1nc(-c2ccc3oc(N)nc3c2)c2c(N)ncnc21 [sapanisertib] — lower, 0.45
- Cc1cc(Nc2ncnc3ccc(NC4=NC(C)(C)CO4)cc23)ccc1Oc1ccn2ncnc2c1 [tucatinib] — higher, 1.64
- CS(=O)(=O)c1ccc(C(=O)Nc2ccc(Cl)c(-c3ccccn3)c2)c(Cl)c1 [vismodegib] — higher, 1.36
- CNC(=O)c1cccc(-c2ccc3c(N4CCOC[C@@H]4C)nc(N4CCOC[C@@H]4C)nc3n2)c1 [vistusertib] — lower, 1.03

Same assay, conditions: 0.1 µM; days in culture: 327

Point of comparison: `CS(=O)(=O)c1ccc(C(=O)Nc2ccc(Cl)c(-c3ccccn3)c2)c(Cl)c1` [vismodegib], “CTG-3D luminescence at 96 h” value 1.87. Against it:
- CC(C)n1nc(-c2ccc3oc(N)nc3c2)c2c(N)ncnc21 [sapanisertib] — lower, 0.802
- Cc1nc(-c2cn3c(n2)-c2ccc(-c4cnn(C(C)(C)C(N)=O)c4)cc2OCC3)n(C(C)C)n1 [taselisib] — lower, 1.66
- Cc1cc(Nc2ncnc3ccc(NC4=NC(C)(C)CO4)cc23)ccc1Oc1ccn2ncnc2c1 [tucatinib] — lower, 1.75
- CNC(=O)c1cccc(-c2ccc3c(N4CCOC[C@@H]4C)nc(N4CCOC[C@@H]4C)nc3n2)c1 [vistusertib] — lower, 1.5

Same assay, conditions: 0.1 µM; days in culture: 346

Point of comparison: `CNC(=O)c1cccc(-c2ccc3c(N4CCOC[C@@H]4C)nc(N4CCOC[C@@H]4C)nc3n2)c1` [vistusertib], “CTG-3D luminescence at 96 h” value 0.926. Against it:
- CC(C)n1nc(-c2ccc3oc(N)nc3c2)c2c(N)ncnc21 [sapanisertib] — lower, 0.528
- Cc1nc(-c2cn3c(n2)-c2ccc(-c4cnn(C(C)(C)C(N)=O)c4)cc2OCC3)n(C(C)C)n1 [taselisib] — higher, 1.1
- Cc1cc(Nc2ncnc3ccc(NC4=NC(C)(C)CO4)cc23)ccc1Oc1ccn2ncnc2c1 [tucatinib] — higher, 1
- CS(=O)(=O)c1ccc(C(=O)Nc2ccc(Cl)c(-c3ccccn3)c2)c(Cl)c1 [vismodegib] — higher, 1.34

Same assay, conditions: 0.1 µM; days in culture: 364

Point of comparison: `CS(=O)(=O)c1ccc(C(=O)Nc2ccc(Cl)c(-c3ccccn3)c2)c(Cl)c1` [vismodegib], “CTG-3D luminescence at 96 h” value 1.34. Against it:
- CC(C)n1nc(-c2ccc3oc(N)nc3c2)c2c(N)ncnc21 [sapanisertib] — lower, 0.397
- Cc1nc(-c2cn3c(n2)-c2ccc(-c4cnn(C(C)(C)C(N)=O)c4)cc2OCC3)n(C(C)C)n1 [taselisib] — lower, 0.786
- Cc1cc(Nc2ncnc3ccc(NC4=NC(C)(C)CO4)cc23)ccc1Oc1ccn2ncnc2c1 [tucatinib] — lower, 0.88
- CNC(=O)c1cccc(-c2ccc3c(N4CCOC[C@@H]4C)nc(N4CCOC[C@@H]4C)nc3n2)c1 [vistusertib] — lower, 0.795

Same assay, conditions: 1 µM; days in culture: 240

Point of comparison: `CS(=O)(=O)c1ccc(C(=O)Nc2ccc(Cl)c(-c3ccccn3)c2)c(Cl)c1` [vismodegib], “CTG-3D luminescence at 96 h” value 1.5. Against it:
- CC(C)n1nc(-c2ccc3oc(N)nc3c2)c2c(N)ncnc21 [sapanisertib] — lower, 0.551
- Cc1nc(-c2cn3c(n2)-c2ccc(-c4cnn(C(C)(C)C(N)=O)c4)cc2OCC3)n(C(C)C)n1 [taselisib] — lower, 0.567
- Cc1cc(Nc2ncnc3ccc(NC4=NC(C)(C)CO4)cc23)ccc1Oc1ccn2ncnc2c1 [tucatinib] — lower, 1.37
- CNC(=O)c1cccc(-c2ccc3c(N4CCOC[C@@H]4C)nc(N4CCOC[C@@H]4C)nc3n2)c1 [vistusertib] — lower, 0.589

Same assay, conditions: 1 µM; days in culture: 260

Point of comparison: `CNC(=O)c1cccc(-c2ccc3c(N4CCOC[C@@H]4C)nc(N4CCOC[C@@H]4C)nc3n2)c1` [vistusertib], “CTG-3D luminescence at 96 h” value 0.501. Against it:
- CC(C)n1nc(-c2ccc3oc(N)nc3c2)c2c(N)ncnc21 [sapanisertib] — higher, 0.652
- Cc1nc(-c2cn3c(n2)-c2ccc(-c4cnn(C(C)(C)C(N)=O)c4)cc2OCC3)n(C(C)C)n1 [taselisib] — lower, 0.486
- Cc1cc(Nc2ncnc3ccc(NC4=NC(C)(C)CO4)cc23)ccc1Oc1ccn2ncnc2c1 [tucatinib] — higher, 0.756
- CS(=O)(=O)c1ccc(C(=O)Nc2ccc(Cl)c(-c3ccccn3)c2)c(Cl)c1 [vismodegib] — higher, 1.57

Same assay, conditions: 1 µM; days in culture: 269

Point of comparison: `Cc1cc(Nc2ncnc3ccc(NC4=NC(C)(C)CO4)cc23)ccc1Oc1ccn2ncnc2c1` [tucatinib], “CTG-3D luminescence at 96 h” value 1.38. Against it:
- CC(C)n1nc(-c2ccc3oc(N)nc3c2)c2c(N)ncnc21 [sapanisertib] — lower, 0.559
- Cc1nc(-c2cn3c(n2)-c2ccc(-c4cnn(C(C)(C)C(N)=O)c4)cc2OCC3)n(C(C)C)n1 [taselisib] — lower, 0.629
- CS(=O)(=O)c1ccc(C(=O)Nc2ccc(Cl)c(-c3ccccn3)c2)c(Cl)c1 [vismodegib] — lower, 1.13
- CNC(=O)c1cccc(-c2ccc3c(N4CCOC[C@@H]4C)nc(N4CCOC[C@@H]4C)nc3n2)c1 [vistusertib] — lower, 0.524

Same assay, conditions: 1 µM; days in culture: 327

Point of comparison: `CNC(=O)c1cccc(-c2ccc3c(N4CCOC[C@@H]4C)nc(N4CCOC[C@@H]4C)nc3n2)c1` [vistusertib], “CTG-3D luminescence at 96 h” value 1.09. Against it:
- CC(C)n1nc(-c2ccc3oc(N)nc3c2)c2c(N)ncnc21 [sapanisertib] — lower, 0.759
- Cc1nc(-c2cn3c(n2)-c2ccc(-c4cnn(C(C)(C)C(N)=O)c4)cc2OCC3)n(C(C)C)n1 [taselisib] — lower, 0.874
- Cc1cc(Nc2ncnc3ccc(NC4=NC(C)(C)CO4)cc23)ccc1Oc1ccn2ncnc2c1 [tucatinib] — higher, 1.44
- CS(=O)(=O)c1ccc(C(=O)Nc2ccc(Cl)c(-c3ccccn3)c2)c(Cl)c1 [vismodegib] — higher, 1.93

Same assay, conditions: 1 µM; days in culture: 346

Point of comparison: `Cc1nc(-c2cn3c(n2)-c2ccc(-c4cnn(C(C)(C)C(N)=O)c4)cc2OCC3)n(C(C)C)n1` [taselisib], “CTG-3D luminescence at 96 h” value 1.15. Against it:
- CC(C)n1nc(-c2ccc3oc(N)nc3c2)c2c(N)ncnc21 [sapanisertib] — lower, 0.577
- Cc1cc(Nc2ncnc3ccc(NC4=NC(C)(C)CO4)cc23)ccc1Oc1ccn2ncnc2c1 [tucatinib] — higher, 1.24
- CS(=O)(=O)c1ccc(C(=O)Nc2ccc(Cl)c(-c3ccccn3)c2)c(Cl)c1 [vismodegib] — higher, 1.47
- CNC(=O)c1cccc(-c2ccc3c(N4CCOC[C@@H]4C)nc(N4CCOC[C@@H]4C)nc3n2)c1 [vistusertib] — lower, 0.641

Same assay, conditions: 1 µM; days in culture: 364

Point of comparison: `CNC(=O)c1cccc(-c2ccc3c(N4CCOC[C@@H]4C)nc(N4CCOC[C@@H]4C)nc3n2)c1` [vistusertib], “CTG-3D luminescence at 96 h” value 0.495. Against it:
- CC(C)n1nc(-c2ccc3oc(N)nc3c2)c2c(N)ncnc21 [sapanisertib] — lower, 0.464
- Cc1nc(-c2cn3c(n2)-c2ccc(-c4cnn(C(C)(C)C(N)=O)c4)cc2OCC3)n(C(C)C)n1 [taselisib] — higher, 0.791
- Cc1cc(Nc2ncnc3ccc(NC4=NC(C)(C)CO4)cc23)ccc1Oc1ccn2ncnc2c1 [tucatinib] — higher, 0.895
- CS(=O)(=O)c1ccc(C(=O)Nc2ccc(Cl)c(-c3ccccn3)c2)c(Cl)c1 [vismodegib] — higher, 1.47

Same assay, conditions: 10 µM; days in culture: 240

Point of comparison: `CNC(=O)c1cccc(-c2ccc3c(N4CCOC[C@@H]4C)nc(N4CCOC[C@@H]4C)nc3n2)c1` [vistusertib], “CTG-3D luminescence at 96 h” value 0.404. Against it:
- CC(C)n1nc(-c2ccc3oc(N)nc3c2)c2c(N)ncnc21 [sapanisertib] — lower, 0.311
- Cc1nc(-c2cn3c(n2)-c2ccc(-c4cnn(C(C)(C)C(N)=O)c4)cc2OCC3)n(C(C)C)n1 [taselisib] — lower, 0.383
- Cc1cc(Nc2ncnc3ccc(NC4=NC(C)(C)CO4)cc23)ccc1Oc1ccn2ncnc2c1 [tucatinib] — higher, 1.02
- CS(=O)(=O)c1ccc(C(=O)Nc2ccc(Cl)c(-c3ccccn3)c2)c(Cl)c1 [vismodegib] — higher, 1.19

Same assay, conditions: 10 µM; days in culture: 260

Point of comparison: `Cc1nc(-c2cn3c(n2)-c2ccc(-c4cnn(C(C)(C)C(N)=O)c4)cc2OCC3)n(C(C)C)n1` [taselisib], “CTG-3D luminescence at 96 h” value 0.536. Against it:
- CC(C)n1nc(-c2ccc3oc(N)nc3c2)c2c(N)ncnc21 [sapanisertib] — lower, 0.468
- Cc1cc(Nc2ncnc3ccc(NC4=NC(C)(C)CO4)cc23)ccc1Oc1ccn2ncnc2c1 [tucatinib] — higher, 1.46
- CS(=O)(=O)c1ccc(C(=O)Nc2ccc(Cl)c(-c3ccccn3)c2)c(Cl)c1 [vismodegib] — higher, 1.91
- CNC(=O)c1cccc(-c2ccc3c(N4CCOC[C@@H]4C)nc(N4CCOC[C@@H]4C)nc3n2)c1 [vistusertib] — higher, 0.89

Same assay, conditions: 10 µM; days in culture: 269

Point of comparison: `CC(C)n1nc(-c2ccc3oc(N)nc3c2)c2c(N)ncnc21` [sapanisertib], “CTG-3D luminescence at 96 h” value 0.643. Against it:
- Cc1nc(-c2cn3c(n2)-c2ccc(-c4cnn(C(C)(C)C(N)=O)c4)cc2OCC3)n(C(C)C)n1 [taselisib] — lower, 0.576
- Cc1cc(Nc2ncnc3ccc(NC4=NC(C)(C)CO4)cc23)ccc1Oc1ccn2ncnc2c1 [tucatinib] — higher, 1.67
- CS(=O)(=O)c1ccc(C(=O)Nc2ccc(Cl)c(-c3ccccn3)c2)c(Cl)c1 [vismodegib] — higher, 1.83
- CNC(=O)c1cccc(-c2ccc3c(N4CCOC[C@@H]4C)nc(N4CCOC[C@@H]4C)nc3n2)c1 [vistusertib] — lower, 0.533

Same assay, conditions: 10 µM; days in culture: 327

Point of comparison: `CNC(=O)c1cccc(-c2ccc3c(N4CCOC[C@@H]4C)nc(N4CCOC[C@@H]4C)nc3n2)c1` [vistusertib], “CTG-3D luminescence at 96 h” value 0.485. Against it:
- CC(C)n1nc(-c2ccc3oc(N)nc3c2)c2c(N)ncnc21 [sapanisertib] — lower, 0.319
- Cc1nc(-c2cn3c(n2)-c2ccc(-c4cnn(C(C)(C)C(N)=O)c4)cc2OCC3)n(C(C)C)n1 [taselisib] — higher, 0.542
- Cc1cc(Nc2ncnc3ccc(NC4=NC(C)(C)CO4)cc23)ccc1Oc1ccn2ncnc2c1 [tucatinib] — higher, 1.16
- CS(=O)(=O)c1ccc(C(=O)Nc2ccc(Cl)c(-c3ccccn3)c2)c(Cl)c1 [vismodegib] — higher, 1.2

Same assay, conditions: 10 µM; days in culture: 346

Point of comparison: `Cc1nc(-c2cn3c(n2)-c2ccc(-c4cnn(C(C)(C)C(N)=O)c4)cc2OCC3)n(C(C)C)n1` [taselisib], “CTG-3D luminescence at 96 h” value 0.603. Against it:
- CC(C)n1nc(-c2ccc3oc(N)nc3c2)c2c(N)ncnc21 [sapanisertib] — lower, 0.315
- Cc1cc(Nc2ncnc3ccc(NC4=NC(C)(C)CO4)cc23)ccc1Oc1ccn2ncnc2c1 [tucatinib] — higher, 1.25
- CS(=O)(=O)c1ccc(C(=O)Nc2ccc(Cl)c(-c3ccccn3)c2)c(Cl)c1 [vismodegib] — higher, 1.65
- CNC(=O)c1cccc(-c2ccc3c(N4CCOC[C@@H]4C)nc(N4CCOC[C@@H]4C)nc3n2)c1 [vistusertib] — lower, 0.549

Same assay, conditions: 10 µM; days in culture: 364

Point of comparison: `Cc1nc(-c2cn3c(n2)-c2ccc(-c4cnn(C(C)(C)C(N)=O)c4)cc2OCC3)n(C(C)C)n1` [taselisib], “CTG-3D luminescence at 96 h” value 0.737. Against it:
- CC(C)n1nc(-c2ccc3oc(N)nc3c2)c2c(N)ncnc21 [sapanisertib] — lower, 0.318
- Cc1cc(Nc2ncnc3ccc(NC4=NC(C)(C)CO4)cc23)ccc1Oc1ccn2ncnc2c1 [tucatinib] — higher, 1.28
- CS(=O)(=O)c1ccc(C(=O)Nc2ccc(Cl)c(-c3ccccn3)c2)c(Cl)c1 [vismodegib] — higher, 1.71
- CNC(=O)c1cccc(-c2ccc3c(N4CCOC[C@@H]4C)nc(N4CCOC[C@@H]4C)nc3n2)c1 [vistusertib] — lower, 0.606
